pEC50: −log10 of the molar value. Blank lines part the entries; values can stand above or below the molecule they belong to. Activity calls are given as the source filed them. No cut-off for these calls is given here.
Columns and labels:
Type in all cases: functional, cell-based
MCF7 [1] = test: Antiproliferative activity against human MCF7 cells assessed as reduction in cell viability at 15 uM after 24 hrs by MTT assay relative to control
MCF7 [2] = test: Antiproliferative activity against human cisplatin resistant human MCF7-CR cells assessed as reduction in cell viability at 15 uM after 24 hrs by MTT assay relative to control
MCF7 [3] = test: Antiproliferative activity against cisplatin-resistant human MCF7-CR cells assessed as reduction in cell viability after 24 hrs by MTT assay; conditions: MCF7, 24 h
MCF7 [4] = test: Antiproliferative activity against cisplatin-resistant human MCF7-CR cells cultured as 3D-spheroids assessed as reduction in cell viability at 5 to 25 uM after 24 hrs by alamar blue assay; conditions: dose 5-25 µM, DDE = dose-dependent effect
MCF7 [5] = test: Antiproliferative activity against cisplatin-resistant human MCF7-CR cells transfected with MBR C3 vector assessed as reduction in cell viability after 24 hrs by MTT assay; conditions: MCF7, 24 h
MCF7 [6] = test: Antiproliferative activity against human MCF7 cells transfected with MBR C3 vector assessed as reduction in cell viability after 24 hrs by MTT assay; conditions: MCF7, 24 h
MCF7 [7] = test: Antiproliferative activity against cisplatin-resistant human MCF7-CR cells transfected with empty vector assessed as reduction in cell viability after 24 hrs by MTT assay; conditions: MCF7, 24 h
MCF7 [8] = test: Induction of cell death in human MCF7 cells assessed as reduction in cell volume at 10 uM after 24 hrs
MCF7 [9] = test: Antiproliferative activity against human MCF7 cells transfected with BCLXL C5 vector assessed as reduction in cell viability after 24 hrs by MTT assay; conditions: MCF7, 24 h
MCF7 [10] = test: Antiproliferative activity against human MCF7 cells transfected with empty vector assessed as reduction in cell viability after 24 hrs by MTT assay; conditions: MCF7, 24 h
MCF7 [11] = test: Inhibition of colony formation in cisplatin-resistant human MCF7-CR cells at 5 to 25 uM after 7 days; conditions: dose 5-25 µM, time 7.0 day, DDE = dose-dependent effect
MCF7 [12] = test: Synergistic antiproliferative activity against cisplatin-resistant human MCF7-CR cells assessed as reduction in cell viability in presence of cisplatin after 24 hrs by MTT assay; conditions: MCF7, 24 h
MCF7 [13] = test: Induction of apoptosis in cisplatin-resistant human MCF7-CR cells assessed as decrease in BCLXL protein expression at 5 to 25 uM after 16 hrs by western blot analysis; conditions: dose 5-25 µM
MCF7 [14] = test: Antiproliferative activity against human MCF7 cells assessed as reduction in cell viability after 24 hrs by MTT assay; conditions: MCF7, 24 h
MCF7 [15] = test: Induction of apoptosis in cisplatin-resistant human MCF7-CR cells assessed as increase in release of cytochrome C in cytosol expression at 10 to 25 uM after 16 hrs by western blot analysis; conditions: dose 10-25 µM, DDE = dose-dependent effect
MCF7 [16] = test: Induction of cell death in human MCF7 cells assessed as round cell morphology at 10 uM after 24 hrs
MCF7 [17] = test: Induction of cell death in cisplatin-resistant human MCF7-CR cells assessed as reduction in cell volume at 10 uM after 24 hrs
MCF7 [18] = test: Induction of apoptosis in cisplatin-resistant human MCF7-CR cells assessed as decrease in BCL2 protein expression at 5 to 25 uM after 16 hrs by western blot analysis; conditions: dose 5-25 µM, DDE = dose-dependent effect
MCF7 [19] = test: Synergistic antiproliferative activity against cisplatin-resistant human MCF7-CR cells assessed as reduction in cell viability in presence of taxol after 24 hrs by MTT assay; conditions: MCF7, 24 h
MCF7 [20] = test: Antiproliferative activity against human MCF7 cells cultured as 3D-spheroids assessed as reduction in cell viability at 5 to 25 uM after 24 hrs by alamar blue assay; conditions: dose 5-25 µM, DDE = dose-dependent effect
MCF7 [21] = test: Induction of cell death in cisplatin-resistant human MCF7-CR cells assessed as round cell morphology at 10 uM after 24 hrs
MCF7 [22] = test: Antiproliferative activity against cisplatin-resistant human MCF7-CR cells transfected with MBR C2 vector assessed as reduction in cell viability after 24 hrs by MTT assay; conditions: MCF7, 24 h
MCF7 [23] = test: Synergistic antiproliferative activity against cisplatin-resistant human MCF7-CR cells assessed as reduction in cell viability in presence of ABT737 after 24 hrs by MTT assay; conditions: MCF7, 24 h
MCF7 [24] = test: Inhibition of colony formation in human MCF7 cells at 5 to 25 uM after 7 days; conditions: dose 5-25 µM, time 7.0 day, DDE = dose-dependent effect

SMILES: COc1ccc(-c2nc(-c3ccccc3)c3cc(Cl)ccc3n2)c(F)c1
Activity (MCF7 [1]): Active | Activity (MCF7 [2]): Active

SMILES: CCOc1cc(-c2nc(-c3ccccc3)c3cc(Cl)ccc3n2)ccc1OC
Activity (MCF7 [1]): Active | Activity (MCF7 [2]): Active

SMILES: CCOc1ccc(-c2nc(-c3ccccc3)c3cc(Cl)ccc3n2)cc1
Activity (MCF7 [1]): Active | Activity (MCF7 [2]): Active

SMILES: FC(F)(F)c1ccc(-c2nc(-c3ccccc3)c3cc(Cl)ccc3n2)cc1
Activity (MCF7 [1]): Active | Activity (MCF7 [2]): Active

pEC50 (MCF7 [3]): 5.26 | pEC50 (MCF7 [5]): 5.28 | pEC50 (MCF7 [6]): 5.53 | pEC50 (MCF7 [7]): 4.65 | pEC50 (MCF7 [9]): 5.16 | pEC50 (MCF7 [10]): 5.06 | pEC50 (MCF7 [12]): 5.31 | pEC50 (MCF7 [14]): 5.30 | pEC50 (MCF7 [19]): 5.91 | pEC50 (MCF7 [22]): 5.30 | pEC50 (MCF7 [23]): 6.54
SMILES: Fc1cc(-c2nc(-c3ccccc3)c3cc(Cl)ccc3n2)ccc1Br
Activity (MCF7 [4]): Dde | Activity (MCF7 [8]): Active | Activity (MCF7 [11]): Dde | Activity (MCF7 [13]): Active | Activity (MCF7 [1]): Active | Activity (MCF7 [2]): Active | Activity (MCF7 [15]): Dde | Activity (MCF7 [16]): Active | Activity (MCF7 [17]): Active | Activity (MCF7 [18]): Dde | Activity (MCF7 [20]): Dde | Activity (MCF7 [21]): Active | Activity (MCF7 [24]): Dde

pEC50 (MCF7 [3]): 4.67 | pEC50 (MCF7 [5]): 5.20 | pEC50 (MCF7 [6]): 5.52 | pEC50 (MCF7 [7]): 4.53 | pEC50 (MCF7 [9]): 4.99 | pEC50 (MCF7 [10]): 4.85 | pEC50 (MCF7 [12]): 5.04 | pEC50 (MCF7 [14]): 5.20 | pEC50 (MCF7 [19]): 5.45 | pEC50 (MCF7 [22]): 5.24 | pEC50 (MCF7 [23]): 6.28
SMILES: Oc1ccccc1-c1nc(-c2ccccc2)c2cc(Cl)ccc2n1
Activity (MCF7 [4]): Dde | Activity (MCF7 [8]): Active | Activity (MCF7 [11]): Dde | Activity (MCF7 [13]): Active | Activity (MCF7 [1]): Active | Activity (MCF7 [2]): Active | Activity (MCF7 [15]): Dde | Activity (MCF7 [16]): Active | Activity (MCF7 [17]): Active | Activity (MCF7 [18]): Dde | Activity (MCF7 [20]): Dde | Activity (MCF7 [21]): Active | Activity (MCF7 [24]): Dde

SMILES: Oc1cccc(-c2nc(-c3ccccc3)c3cc(Cl)ccc3n2)c1O
Activity (MCF7 [1]): Active | Activity (MCF7 [2]): Active

pEC50 (MCF7 [3]): 5.36
SMILES: CN(C)CC[C@H](CSc1ccccc1)Nc1ccc(S(=O)(=O)NC(=O)c2ccc(N3CCN(Cc4ccccc4-c4ccc(Cl)cc4)CC3)cc2)cc1[N+](=O)[O-] [ABT 737]

pEC50 (MCF7 [3]): 4.35
SMILES: CC(=O)O[C@H]1C(=O)[C@@]2(C)[C@H]([C@H](OC(=O)c3ccccc3)[C@]3(O)C[C@H](OC(=O)[C@H](O)[C@@H](NC(=O)c4ccccc4)c4ccccc4)C(C)=C1C3(C)C)[C@]1(OC(C)=O)CO[C@@H]1C[C@@H]2O [PACLITAXEL]

SMILES: CC(C)(C)c1ccc(-c2nc(-c3ccccc3)c3cc(Cl)ccc3n2)cc1
Activity (MCF7 [1]): Active | Activity (MCF7 [2]): Active

SMILES: Cc1ccc(-c2nc(-c3ccccc3)c3cc(Cl)ccc3n2)cc1
Activity (MCF7 [1]): Active | Activity (MCF7 [2]): Active

SMILES: CCCCOc1ccc(-c2nc(-c3ccccc3)c3cc(Cl)ccc3n2)cc1
Activity (MCF7 [1]): Active | Activity (MCF7 [2]): Active
